The text below walks through data of patent US5968526A, “T cell epitopes of the major allergens from Dermatophagoides (house dust mite)” (Immulogic Pharamaceutical Corporation, priority 1995, dated 1999).

Series [1] relates to T cell lines primed in vitro to Der p I. In words: secondary proliferation of Der p I-primed T cell lines (Examples V, VII, XI). It is filed as cell-based, human. As to conditions: for T cell reactivity: overlapping Der p I peptides. Put shortly: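 PBMC were primed with native or recombinant Der p I (10 or 20 μg/ml) for 7 days, then expanded with IL-2 and IL-4. Resting T cells (2×10^4) were cultured 3 days with irradiated autologous EBV-B cells or PBMC and titrated protein or peptides, then pulsed 16 h with 1 μCi ³H-thymidine. S.I. was peak-response CPM over medium-only CPM, with S.I. ≥2.0 scored positive.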

For series [2], the system named is T cell cultures reactive with Der p I from house dust mite-allergic subjects. In words: secondary T cell proliferation assay, Group I (Der p I) overlapping and candidate/unique peptides; percent of T cell reactivity. It is filed as cell-based, human. The conditions noted are these: patient 1733; highest S.I. ≥2.0 recorded. An excerpt:
To determine whether a peptide (candidate peptide) or a combination of candidate peptides are likely to comprise a sufficient percentage of the T cell reactivity of house dust mite protein allergens, to induce T cell nonresponsiveness in a substantial percentage of a population of individuals sensitive to house dust mite allergen, an algorithm can be used. In accordance with one such algorithm, a set of overlapping peptides is produced by systematically dividing the protein allergen(s) of interest into al least two overlapping peptide regions of desired lengths (e.g., of about 12-30 amino acid residues in length, preferably not longer than about 25 amino acid residues in length with about 5-15 amino acid residues of overlap). This division into peptide regions can be arbitrary, can be made according to an algorithm, or can be wholly or partially based on regions of house dust mite Group I and/or Group II protein allergens known to comprise at least one T cell epitope. Preferably, at least 50% of the entire house dust mite protein allergen sequence and more preferably, the entire house dust mite protein allergen sequence is divided into two or more peptides. A human T cell stimulation index is determined for each of the peptides in an in vitro T cell proliferation assay as described herein for each individual tested in a population of individuals sensitive to the protein antigen. For example both WO93/08279 and WO94/24281 disclose T cell studies with overlapping peptides derived from Der p I, Der p II, Der f I and Der f II. A candidate peptide or combination of candidate peptides is selected based, at least in part, on the mean human T cell stimulation index of the candidate peptide in the set of peptides tested and the positivity index of the candidate peptide in the set of peptides tested (see, FIGS. 3 and 4). The human T cell stimulation index for the candidate peptide(s) is summed. For each individual, the human T cell stimulation index for the candidate peptide(s) is divided by the sum of the human T cells stimulation indices of the remaining peptides in the set of peptides tested to determine a percent of T cell reactivity as shown below:
Alternatively, the presence of T cell epitopes in the candidate peptide dependent on amino acids residues in an overlapping peptide located at either the N-terminus or C-terminus of the candidate peptide in the amino acid sequence of the protein antigen, but which epitopes are not present in the candidate peptide can be considered in calculating the percent of T cell reactivity in the candidate peptide by use of the following formula: [formula]
In this formula, "NT flanking peptide" refers to a peptide which comprises amino acid residues which overlap with amino acid residues located at the N-terminus of the candidate peptide in the amino acid sequence of the protein antigen from which the peptide is derived; "CT flanking peptide" refers to a peptide which comprises amino acid residues which overlap with amino acid residues located a the C-terminus of the candidate peptide in the amino acid sequence of the protein antigen from which the peptide is derived. In this calculation stimulation indices for the candidate peptide, the N-terminal flanking peptide and the C-terminal flanking peptide are added and divided by the sum total of the stimulation indices for the entire set of overlapping peptides obtain a percent of T cell reactivity for the candidate peptide. If a combination of two or more candidate peptides is selected each of which contains amino acid residues which overlap, this calculation cannot be used to determine a percent of T cell reactivity for each candidate peptide separately. However, a total percent of T cell reactivity for the combination of candidate peptides can be obtained. In this situation, the stimulation indices for all of the candidate peptides which overlap is included in the calculation. […]

Series [3] concerns PBMC from mite-allergic patient. In words: primary T cell (PBMC) proliferation, mite-allergic patient, tritiated thymidine. It is filed as cell-based, human. The conditions noted are these: medium 1071 ± 30. The essentials:
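Ficoll-purified PBMC (5×10^4/well, triplicate) from one mite-allergic donor cultured 7 days at 37 °C with graded concentrations of purified Der p I, Der p II or their peptides in RPMI-1640 plus 5% human AB serum. 1 μCi ^3H-thymidine added for 16 h; CPM counted, stimulation index = antigen CPM/medium-only CPM.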

The test system of series [4] is T cell lines primed in vitro to Der f I. In words: secondary proliferation of Der f I-primed T cell lines (Examples VI, VII, XI). It is filed as cell-based, human. As to conditions: Der f I primed; 8 positive experiments; FIG. 8. Put shortly: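 PBMC from house dust mite-allergic patients were primed in vitro with recombinant or affinity-purified Der f I at 20 μg/ml (or 10 μg/ml), then rechallenged with Der f I peptides. Antigen-presenting cells were x-irradiated autologous PBMC (3500 Rads) or EBV-transformed B cells (25,000 Rads). Read-out was T cell proliferation.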

The next series relates to mast cells or basophils. In words: histamine release. Format: cell-based, human. As to conditions: data not shown. How it is done:
To determine whether a peptide which binds IgE results in the release of mediators, a histamine release assay can be performed using standard reagents and protocols obtained for example, from Amac, Inc. (Westbrook, Me.). Briefly, a buffered solution of a peptide to be tested is combined with an equal volume of whole heparinized blood from an allergic subject. After mixing and incubation, the cells are pelleted and the supernatants are processed and analyzed using a radioimmunoassay to determine the amount of histamine released.

A further series deals with human IgE. In words: direct binding ELISA of IgE to mite allergen proteins and peptides. As to conditions: data not shown. How it is done: The coating antigens were removed and the wells are blocked with 0.5% gelatin in PBS, 300 μl/well for 2 hours at room temperature. Pooled human plasma (a mix of plasma samples from 20 patients that were skin test positive for commerical mite extract) was serially diluted with PBS-Tween 20 (PBS with 0.05% nonionic detergent Tween-20 Sigma, St. Louis, Mo.) and 100 μl/well a.backslash.was added and incubated overnight at 4° C. (plasma dilutions were tested in duplicate). The second antibody (biotinylated goat anti-Human IgE, 1:1000, Kirkegaard & Perry Laboratories Inc, Gaithersburg, Md.), was added at 100 μl/well for one hour at room temperature. This solution was removed and streptavidin-HRPO, 1:10000, (Southern Biotechnology Associates, Inc., Birmingham, Ala.) was then added at 100 μl/well for one hour at room temperature (all wells are washed three times with PBS-Tween between each incubation step). TMB Membrane Peroxidase Substrate system (Kirkegaard & Perry Laboratories) was freshly miced, and added at […]. The color was allowed to develop for 2-5 minutes. The reaction was stopped by the addition of […] of 1M phosphoric acid. Plates were read on a Microplate IL310 Autoreader (Biotech Instruments, Winooski, Vt.) with a 450 nm filter. The absorbance levels of duplicate wells were averaged. The order of coating antigens listed vertically in these figure legends corresponds in orDer from left to right to the coating antigens listed for each histogram.
The antigen preparation that was used as a positive control was a mixture of the four major biochemically purified mite allergens (term PMA for Purified Mite Allergen); Der f I, Der f II, Der p I and Der p II. The stock was generated at a concentration of 100 μgs of each protein per millimeter or 400 μgs total protein/ml. This preparation was used on each coated ELISA plate.

A short description of series [5]: pH-stability profile / solution stability (HPLC). Format: physicochemical. As to conditions: pH 6 to pH 8. As to the method: (§1) 50 mM sodium phosphate stock solutions:
(§2) Stock solution A: 0.66 g […] of monobasic sodium phosphate monohydrate U.S.P. and 50 mg EDTA disodium dihydrate, U.S.P. were dissolved in 100 mL of WFI. The solution was filtered through a 0.2 micron filter
(§3) Stock solution B: 0.71 g […] of dibasic sodium phosphate U.S.P. were disolved in 100 ml WFI. The solution was filtered through a 0.2 micron filter.
(§4) 2. Initial peptide dispersions
(§5) Dispersion A: 3.0 mg of each candidate peptide,DPI-21.2 (SEQ. ID. NO. 28), DFI-22.2 (SEQ. ID. NO. 93), DFI-23.31(SEQ. ID. NO. 165), DFI-26.6 (SEQ. ID. NO. 168), DPII-20.9 (SEQ. ID. NO. 169), DPII-22.14 (SEQ. ID. NO. 180) and DPII-25.15 (SEQ. ID. NO. 188), was weighed out separately and placed in separate 1.5 mL eppendoff vials with 600 μL of stock solution A. The composition was agitated for 1 seconds to mix well.
(§6) Dispersion B: 3.0 mg of each peptide, DPI-21.2 (SEQ. ID. NO. 28), DFI-22.2 (SEQ. ID. NO. 93), DFI-23.31(SEQ. ID. NO. 165), DFI-26.6 (SEQ. ID. NO. 168), DPII-20.9 (SEQ. ID. NO. 169), DPII-22.14 (SEQ. ID. NO. 180) and DPII-25.15 (SEQ. ID. NO. 188), was weighed out separately and placed in separate 1.5 mL eppendoff vials with 600 μL of stock solution B. The mixture was agitated for 5 seconds to mix well.
(§7) Dispersions A and B were sonicated for 2 minutes for good homogeneity. A small volume was pipetted from each dispersion into a labeled eppendoff vial according to the following volume ratio:
(§8) The resultant solutions/suspensions were stored in the dark at about 22° C.±2 for 24 hours without agitation. The solutions were filtered and filtrates were analyzed for pH and peptide concentration.
(§9) The concentration of filtered peptide solutions was determined by HPLC analysis. In this experiment, the solubility of peptide at each pH is defined as the amount of peptide remaining in solution after filtration through a membrane filter having a 0.2 micrometer pore size. The extent of degradation of peptides was estimated by calculating the percent of total degradant peak area over the total peak area.
The pH-stability profiles for each peptide DPI-21.2 (SEQ. ID. NO. 28), DFI-22.2 (SEQ. ID. NO. 93), DFI-23.31(SEQ. ID. NO. 165), DFI-26.6 (SEQ. ID. NO. 168), DPII-20.9 (SEQ. ID. NO. 169), DPII-22.14 (SEQ. ID. NO. 180) and DPII-25.15 (SEQ. ID. NO. 188) in equal concentration combination at 3, 2, and 1 mg/ml per peptide and prepared in duplicate as described above with one set stored at about 5° C. for 24 hours and one set stored at about 22° C.±2 for 24 hours, were calculated and tabulated as a function of the percentage of total of degradant peak area (FIG. 38).

A short description of another series: pH-solubility profile. Format: physicochemical. The conditions noted are these: at a pH in the range pH 6 to pH 8. As to the method:
as §1, §2, §3, §4, §5, §6, §7, §8, §9
The pH values with respect to the solubility values was plotted and are shown in FIG. 37 for each respective peptide. As shown in the solubility curve for each peptide as represented in FIG. 37, peptides DPI-21.2 (SEQ. ID. NO. 28), DFI-22.2 (SEQ. ID. NO. 93), DFI-23.31 (SEQ. ID. NO. 165), DFI-26.6 (SEQ. ID. NO. 168), DPII-20.9 (SEQ. ID. NO. 169), DPII-22.14 (SEQ. ID. NO. 180) and DPII-25.15 (SEQ. ID. NO. 188) are each soluble at greater than 3 mg/ml at a pH in the pH range of pH 6 to pH 8.

With “DP I-7.1: Der p I peptide (AQTHSAIAVIIGIKDLDAFRHYDGRT)”, in series [1] (33 positive experiments), the T cell reactivity entry is “significant regions of T cell reactivity”. Besides, the “T cell stimulation index (S.I.)” value in series [2] turned out to be 2.2.
The like results for “DP I-9: Der p I peptide (IIQRDNGYQPNYHAVNIVGYSNA)” were, in that order, “significant regions of T cell reactivity” and 2.4.
As to “DP I-10: Der p I peptide (QGVDYWIVRNSWDTNWGDNGYGYF)”, the entries for the “CPM ± S.D.” value in series [3] (10 μg/ml), in series [3] (30 μg/ml) and in series [3] (100 μg/ml) were 1936 ± 50 CPM, 3042 ± 89 CPM and 2644 ± 63 CPM, respectively. The T cell reactivity result in series [1] (33 positive experiments) was “significant regions of T cell reactivity”. In series [2], the “T cell stimulation index (S.I.)” value is recorded as 0.
Consider “DP I-12.1: Der p I peptide, native sequence (ELVDCASQHGCHGDTIPRGIE)”, for which, in series [1] (DP I-11/12 vs DP I-11.1/12.1), the “difference in mean S.I. or percentage of positive responses, original vs additional (native sequence) peptides” value is on record as “no significant difference”. Besides, the “T cell stimulation index (S.I.)” value in series [2] is reported as 2.2.
For “DP I-14: Der p I peptide (QSCRRPNAQRFGISNYCQI)”, the “T cell response to Der p I peptides” value in series [4] was “respond significantly”. The “T cell stimulation index (S.I.)” value in series [2] was 2.3.
Turning to “DP I-15: Der p I peptide (RFGISNYCQIYPPNANKIREAL)”, the “T cell response to Der p I peptides” value in series [4] is reported as “respond significantly”. The “T cell stimulation index (S.I.)” value in series [2] is given as 2.8.
As to “DP I-16: Der p I peptide (HAVNIVGYSNAQGVDYWIVRNS)”, the T cell reactivity entry in series [1] (33 positive experiments) is reported as “significant regions of T cell reactivity”. Also, in series [2], the “T cell stimulation index (S.I.)” value came out at 2.0.
Turning to “DP I-22.2: Der p I peptide (VAATESAYLAHRNQSLDLAEQELVD)”, in series [1] (33 positive experiments, FIG. 13), the “T cell response to selected Der p I peptides” value is on record as “respond significantly”. Besides, the “T cell stimulation index (S.I.)” value in series [2] is recorded as 3.1.
Take “DP II-25.15: modified Der p II peptide; unique peptide (DEETVKVMGDDGVLACAIATHAKIRDEE)”: in the series with mast cells or basophils, the histamine release result is “negative”. Further, in the series on human IgE, the “IgE reactivity, candidate peptides” value is “negative”. Moreover, in series [5], the “stability (in words)” value is “acceptable solution stability”. The solubility entry in the series “pH-solubility profile” is “greater than 3 mg/ml”.
